What is called pIC50 is the negative decadic logarithm of the IC50, by convention in mol/L. Usually MIC stands for the smallest concentration in the dilution series that meets the test's criterion for growth inhibition.

pIC50: −log10 of the molar value. ≈ marks a conversion by molar mass, not a printed value. Entries after “also recorded” stand apart in the source; their conditions may differ. Where two headings read alike, the source gives them in different places.

Data set [1] concerns Giardia duodenalis trophozoites (BAH2c2 strain). Description: Resazurin reduction assay on Giardia trophozoites in vitro. Format: cell-based. Conditions: for pIC50 / MIC: Giardia duodenalis; for MIC: minimum inhibitory concentration, read-out: Antigiardial activity MIC (24 h); for Selectivity ratio: higher ratios = more selective. From the text: (§1) Biology Materials and Methods:
Metronidazole was sourced from sigma.
Chemicals used for the culture of Giardia in vitro were sourced as follows: glucose and L-cysteine (ACROS organics, Thermo Fisher Scientific, Scoresby, Vic), Ammonium Iron (III) citrate, ascorbic Acid (Sigma -aldrich, Castle Hill, NSW), potassium dihydrogen orthophosphate (UNIVAR, Ingleburn, NSW), bovine bi le (Fluka analytical (BD)), di-potassium hydrogen orthophosphate (Fronine laboratory supplies, Riverstone, NSW).
G. duodenalis (BAH2c2 strain) was cultivated according to the method of Clark and Diamond in Keister’s modified TYI-S-33 medium, supplemented with heat inactivated foetal bovine serum (Hyclone™, Thermo Scientific, Scoresby, Vic) at 37°C in plastic 9 mL screw-capped test tubes (nunc). Subcultures were performed once a confluent monolayer was observed, approximately 2 – 3 times per week (Clark and Diamond, 2002).
(§2) CaCo-2 cells, a human cell line derived from a primary colonic tumour, were sourced from Cellbank Australia and were maintained in MEM supplemented with 2 mM glutamine, 1% non-essential amino acids and 10% FCS (Thermo Scientific). Cells were passaged when confluent, approximately 1-2 times per week. Vero cells were also obtained from Cellbank Australia and maintained as above.
(§3) In vitro drug efficacy assays
Resazurin Reduction Assay […]
tested to identify the IC50 and minimum lethal concentration (MLC). For all assays the media of confluent cultures was replaced with fresh media and the cultures were placed on ice for 40 minutes to detach trophozoites.
Trophozoites were enumerated using a haemocytometer and 50 000 trophozoites were added to each test well of a 96 well plate. Either single concentrations (final concentration 25 μM) for the screening assay or tripling dilutions […]
wells. The assays were repeated in triplicate with metronidazole and a DMSO (vehicle only) used as controls. Plates were incubated under anaerobic conditions (anaerogen sachet, Thermofisher scientific) for 5 or 24 hours at 37°C following which the viability of treated cells was determined using the resazurin reduction assay (Benere et al., 2007). The media was removed and replaced with an equal volume of warm PBS. Resazurin (Sigma) was then added at 10% of the total volume of the wells. Plates were further incubated for colour development and absorbance read at 570 nm and 630 nm. Resazurin reduction was calculated according to the following formula: […]
(§4) CaCo-2 or Vero cells, maintained as outlined above, were collected via trypsinisation and enumerated using trypan blue and a haemocytometer. Select analogues were prepared in DMSO so that the final concentration in the assay was 25 μM. 1 X 10^5 cells/ml were added to each assay with the appropriate drug dilution. Assays were completed in 96 well plates and incubated for 24 hours at 37°C, 5% CO2 in a humidified incubator. After incubation cells were […]
(§5) washed with warm PBS before the addition of 10% resazurin in PBS. Assays were incubated to allow colour development and absorbance read at 630 and 570nm. Activity of the analogues against mammalian cells was calculated according to the formula stated above.

Data set [2] relates to Escherichia coli. The experiment in a line: Antibacterial activity against gram negative bacteria (E. coli). The format is cell-based. The protocol: as §1
Metronidazole was sourced from sigma. […]
hydrogen orthophosphate (Fronine laboratory supplies, Riverstone, NSW).
Subcultures were performed once a confluent
Scientific). […] Vero cells were also obtained from Cellbank Australia and maintained as above.
as §3
Resazurin Reduction Assay
For all assays the media of confluent cultures
2007). […] Resazurin (Sigma) was then
Plates were further incubated for colour development and absorbance read at 570 nm and 630 nm. Resazurin reduction was calculated according to the following formula: […]
broth for a random selection of compounds (Thermofisher Scientific). Compounds were diluted in DMSO to 100X […]
Cells were incubated for 18-24 hrs before interpretation of results. […]
blue and a haemocytometer. […]
was 25 μM. […] Assays were completed
After incubation cells were […]

For data set [3], the system named is CaCo-2 cells. Conditions: human, 24 h, 25 μM. The protocol: (§6) Biology Materials and Methods: […]
as §2
(§7) In vitro drug efficacy assays […]
2007). The media was removed and replaced with an equal volume of warm PBS. Resazurin (Sigma) was then added at 10% of the total volume of the wells. Plates were further incubated for colour development and absorbance read at 570 nm and 630 nm. Resazurin reduction was calculated according to the following formula: […]
as §4, §5

For data set [4], the system named is Giardia. More on the design: method as in PMID 14585063. Conditions: drug treatment of Giardia infection; cited from earlier work.
For data set [5], the system named is Vero cells. Description: In vitro cytotoxicity, Vero cells. The note with it: 25 μM; for Toxicity (Y/N) / Toxicity (% growth control): 24 h; for Toxicity (% growth control): Percent Vero cell growth. The protocol: as §6, §2, §7
The media was removed and replaced with an equal volume of warm PBS. Resazurin (Sigma) was then added at 10% of the total volume of the wells. Plates were further incubated for colour development and absorbance read at 570 nm and 630 nm. Resazurin reduction was calculated according to the following formula: […]
CaCo-2 or Vero cells, maintained as outlined above, were collected via trypsinisation and enumerated using trypan blue and a haemocytometer. Select analogues were prepared in DMSO so that the final concentration in the assay […]
in 96 well plates and incubated for 24 hours at 37°C, 5% CO2 in a humidified incubator. After incubation cells were […]
washed with warm PBS before the addition of 10% resazurin in PBS. Assays were incubated to allow colour development and absorbance read at 630 and 570nm. Activity of the analogues against mammalian cells was calculated according to the formula stated above. […]
reduction assay the mean and standard error of the mean was determined with each assay completed in triplicate.
The IC50 was calculated using the log (inhibitor) vs. normalised response – variable slope function in Graphpad […]

Data set [6] has as its system Giardia duodenalis. The experiment in a line: Washout / growth recovery of Giardia after 5 h exposure. The format is cell-based. Conditions: 5 h treatment, 48 h post removal.
Data set [7] can be described thus: In vivo toxicity in mice. The note with it: per os, 100 mg/kg per day for 3 days, 100 mg/kg/day.
Setting [8] is: 24 h, read-out: Antigiardial activity IC50 (24 h).
Setting [9] is: 5 h, read-out: Antigiardial activity IC50 (5 h).
Where [10] appears, read: toxicity tested at 25 μM vs 5 h IC50, Table 4.
Setting [11] is: toxicity tested at 25 μM vs 24 h IC50, Tables 1-3.
The mark [12] stands for this setting: Vero cells, Table 4 (toxic if >10 % cells affected).
The mark [13] stands for this setting: Vero cells, Tables 1-3 (toxic if >20 % cells affected).

Take `Cl.N=C(NN=Cc1ccccc1Cl)NN=Cc1ccccc1Cl` [Compound 12]: the pIC50 in data set [1] (setting [8]) is 4.91. The MIC in data set [1] (24 h) amounted to 25 µM. Further, the “Activity against gram negative bacteria / E. coli” value in data set [2] is listed as “no antibacterial activity”.
On to `CC(=O)Nc1cc(Cl)ccc1C=NNC(=N)NN=Cc1ccc(Cl)cc1NC(C)=O.Cl` [Compound 40], for which the “Toxicity (% growth control)” value in data set [3] is on record as 83.1±4.4%. Further, in data set [1] (setting [9]), the pIC50 was 6.10. Also, the Selectivity ratio in data set [1] (setting [10]) is given as >31.3.
For the compound `CCCSc1ccc2nc(NC(=O)OC)[nH]c2c1` [albendazole], in data set [4], the “treatment success / reported efficacy” value is given as 62–95%.
With `Cc1ncc([N+](=O)[O-])n1CCO` [Metronidazole, metronidazole, reference compound], in data set [1] (5 h, 25 μM), the “Antigiardial activity at 5 h” value was “inactive”. Further, the pIC50 in data set [1] (setting [8]) is 5.42. Further, in data set [1] (24 h), the MIC came out at 8.3 µM (≈ 1.42 µg/mL). In addition, the Selectivity ratio in data set [1] (setting [11]) is given as >6.6. For the same compound, the “treatment success / reported efficacy” value in data set [4] is on record as 80–90%.
Turning to `CCS(=O)(=O)CCn1c([N+](=O)[O-])cnc1C` [tinidazole], in data set [4], the “treatment success / reported efficacy” value is listed as 80–90%.
Turning to `Cl.N=C(NN=Cc1ccc(Br)cc1)NN=Cc1ccc(Br)cc1` [Compound 6], in data set [3], the “Toxicity (% growth control)” value was determined as 97.1±1.6% and the cell death was < 10%. Also, the pIC50 in data set [1] (setting [8]) is 5.77. Besides, the MIC in data set [1] (24 h) is 8.3 µM. The Selectivity ratio in data set [1] (setting [11]) is >14.7. Further, the “Activity against gram negative bacteria / E. coli” value in data set [2] was “no antibacterial activity”. For the same compound, in data set [5] (Vero cells), the cell death is listed as < 10%.
Consider `COc1cc(C=NNC(=N)NN=Cc2cc(Br)c(OC)c(OC)c2)cc(Br)c1OC.Cl` [Compound 42], for which the negative logarithm of the IC50 (pIC50) in data set [1] (setting [9]) is 5.57. Moreover, the Selectivity ratio in data set [1] (setting [10]) was >9.3. For the same compound, the “Toxicity (Y/N)” value in data set [5] (setting [12]) was “Y^[e] (compounds are indicated as toxic if >10 % cells are affected)”.
With `Cl.N=C(NN=Cc1ccccc1-c1ccccc1)NN=Cc1ccccc1-c1ccccc1` [Compound 18], the “Toxicity (% growth control)” value in data set [3] is 75.4±3.4%. Besides, in data set [1] (setting [8]), the pIC50 was 5.55. Besides, the MIC in data set [1] (24 h) is > 25 µM. In data set [1] (setting [11]), the Selectivity ratio was >8.9.
`Cl.N=C(NN=Cc1ccccc1F)NN=Cc1ccccc1F` [Compound 13]: the pIC50 in data set [1] (setting [8]) is < 4.60. For the same compound, the MIC in data set [1] (24 h) was > 25 µM. Further, in data set [5], the “Toxicity (% growth control)” value is on record as 93.9±1.9%. In addition, in data set [5] (setting [13]), the “Toxicity (Y/N)” value is “N (compounds are indicated as toxic if >20 % cells are affected)”.
For `Cl.N=C(NN=Cc1ccccc1Br)NN=Cc1ccccc1Br` [Compound 11], the “Toxicity (% growth control)” value in data set [3] stood at 79.1±2.3%. In addition, in data set [1] (setting [8]), the pIC50 was 6.10. In addition, in data set [1] (24 h), the MIC stood at 25 µM. For the same compound, the Selectivity ratio in data set [1] (setting [11]) is >31.3. Also, in data set [2], the “Activity against gram negative bacteria / E. coli” value is “no antibacterial activity”.
As to `COc1cc(Br)c(C=NNC(=N)NN=Cc2cc(OC)c(OC)cc2Br)cc1OC.Cl` [Compound 41, 2,2′‐bis[(2‐bromo‐4,5‐dimethoxyphenyl)methylene]carbonimidic dihydrazide hydrochloride], the “Giardia regrowth after compound removal” value in data set [6] is “no Giardia regrowth; also recorded: did not result in Giardia regrowth”. Moreover, in data set [7], the “Tolerability in mice (adverse effects)” value is on record as “well tolerated; also recorded: no adverse effects”. Further, the pIC50 in data set [1] (setting [9]) was 6.70. The “time to marked impact on Giardia trophozoites” value in data set [1] (data not shown) was 1 to 2 h. Moreover, the Selectivity ratio in data set [1] (setting [10]) is recorded as >125.
Turning to `Cl.N=C(N/N=C/c1ccc(Cl)cc1)N/N=C/c1ccc(Cl)cc1` [Robenidine 4, robenidine, reference compound], in data set [3], the “Toxicity (% growth control)” value amounted to 40.7±22.6%. Moreover, the “Giardia regrowth after compound removal” value in data set [6] is on record as “did not result in Giardia regrowth”. Moreover, in data set [1] (setting [8]), the pIC50 is 6.05. In addition, in data set [1] (24 h), the MIC is 2.8 µM. In addition, in data set [1] (setting [11]), the Selectivity ratio is recorded as >27.8.
With `COc1ccc(C=NNC(=N)NN=Cc2ccc(OC)cc2)cc1.Cl` [Compound 24], the pIC50 in data set [1] (setting [8]) is 5.22. In data set [1] (setting [11]), the Selectivity ratio was >4.2. The “Toxicity (Y/N)” value in data set [5] (setting [13]) is “Y^[e] (compounds are indicated as toxic if >20 % cells are affected)”.
As to `Cl.N=C(NN=Cc1ccc(Cl)cc1Cl)NN=Cc1ccc(Cl)cc1Cl` [Compound 34], the Selectivity ratio in data set [1] (setting [10]) is on record as >10.0. The “Toxicity (% growth control)” value in data set [5] is reported as 55.8±4.3%. The “Toxicity (Y/N)” value in data set [5] (setting [12]) was “Y (compounds are indicated as toxic if >10 % cells are affected)”.

The values above are taken from article PMC9828538, “Antigiardial Activity of Novel Guanidine Compounds” (Chemmedchem, 2022).
